Measurements: patent publication US8741659B2, “Composition for measuring the binding affinity between nucleic acid and test substance, and use thereof” (Osaka University, priority 2007, dated 2014)

Test system: single strand RNA (ssRNA), SEQ ID NO: 7
Test: Binding between X2S and single strand RNA
Method: In this Example, binding between X2S and a single strand RNA (hereinafter, referred to as “ssRNA”) was evaluated. Specifically, the evaluation was performed in the same manner as that described in Example 2. However, the evaluation performed in this Example differed from that performed in Example 2 in the following points: Instead of the double strand RNA, an ssRNA was used; The ssRNA was added in steps at 0 μM, 1 μM, 2 μM, 3 μM, 4 μM, 5 μM, 6 μM, 7 μM, and 8 μM; The ssRNA was purchased from: Hokkaido System Science Co., Ltd. The sequence of the ssRNA is shown in SEQ ID NO: 7.
FIG. 18 is a view illustrating the result of the evaluation of binding between X2S and the ssRNA. The horizontal axis represents the fluorescence wavelength, whereas the vertical axis represents the fluorescence intensity.

SMILES: NCCOc1ccc2oc3ccc(OCCN)cc3c(=O)c2c1 [X2S, 2,7-bis(2-aminoethoxy)xanthen-9-one]
- amount of change of fluorescence intensity (0 μM versus 8 μM ssRNA): approximately 50%
- binding to ssRNA (ssRNA 0-8 μM): binds to an ssRNA
